Where a name gives a salt, the structure may show the parent alone.
Biological target: T1, human V1a receptor (Homo sapiens, UniProt P37288)
T1 construct: expressed in transfected cells; host or cells: HEK293 cells, transiently transfected; cell membranes
Test: human V1a receptor binding studies (3H-Vasopressin, SPA beads)
Settings: membranes from HEK293 cells transiently transfected with human V1a receptor, Ki calculated from IC50 by the Cheng-Prussoff equation, read-out: pKi (hV1a) (converted)
Method: The human V1a receptor was cloned by RT-PCR from total human liver RNA. The coding sequence was subcloned in an expression vector after sequencing to confirm the identity of the amplified sequence. […] Cell membranes were prepared from HEK293 cells transiently transfected with the expression vector and grown in 20 liter fermenters with the following protocol.
50 g of cells are resuspended in 30 ml freshly prepared ice cold Lyses buffer (50 mM HEPES, 1 mM EDTA, 10 mM magnesium dichloride adjusted to pH=7.4+complete cocktail of protease inhibitor (Roche Diagnostics)). Homogenized with Polytron for 1 min and solicited on ice for 2×2 minutes at 80% intensity (Vibrate solicitor). The preparation is centrifuged 20 min at 500 g at 4° C., the pellet is discarded and the supernatant centrifuged 1 hour at 43′000 g at 4° C. (19′000 rpm). The pellet is resuspended in 12.5 ml Lyses buffer+12.5 ml sucrose 20% and homogenized using a Polytron for 1-2 min. The protein concentration is determined by the Bradford method and aliquots are stored at −80° C. until use. For binding studies 60 mg Yttrium silicate SPA beads (Habersham®) are mixed with an aliquot of membrane in binding buffer (50 mM Tris, 120 mM sodium chloride, 5 mM potassium chloride, 2 mM calcium dichloride, 10 mM magnesium dichloride) for 15 minutes with mixing. 50 μl of bead/membrane mixture is then added to each well of a 96 well plate, followed by 50 μl of 4 nM 3H-Vasopressin (American Radiolabeled Chemicals). For total binding measurement 100 μl of binding buffer are added to the respective wells, for non-specific binding 100 μl of 8.4 mM cold vasopressin and for compound testing 100 μl of a serial dilution of each compound in 2% dimethyl sulfoxide. The plate is incubated 1 h at room temperature, centrifuged 1 min at 1000 g and counted on a Packard Top-Count. Non-specific binding counts are subtracted from each well and data is normalized to the maximum specific binding set at 100%. To calculate an IC50 the curve is fitted using a non-linear regression model (XLfit) and the Ki is calculated using the Cheng-Prussoff equation.

T1 sequence (P37288 whole entry): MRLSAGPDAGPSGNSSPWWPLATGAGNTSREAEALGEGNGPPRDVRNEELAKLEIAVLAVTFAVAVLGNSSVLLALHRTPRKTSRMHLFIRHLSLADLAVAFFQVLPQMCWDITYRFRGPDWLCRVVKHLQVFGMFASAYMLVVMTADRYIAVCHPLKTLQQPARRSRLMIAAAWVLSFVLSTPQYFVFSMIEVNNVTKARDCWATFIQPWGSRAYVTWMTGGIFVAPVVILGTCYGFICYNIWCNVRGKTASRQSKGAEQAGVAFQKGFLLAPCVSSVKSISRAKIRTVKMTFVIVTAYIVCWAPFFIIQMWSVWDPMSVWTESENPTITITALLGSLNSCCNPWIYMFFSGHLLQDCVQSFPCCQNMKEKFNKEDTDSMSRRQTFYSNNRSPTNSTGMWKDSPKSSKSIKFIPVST

| Compound | Ki |
| --- | --- |
| Cc1cc(C)nc([C@H]2CC[C@H](c3nnc4n3-c3ccc(Cl)cc3CN(C(=O)OC(C)(C)C)C4)CC2)n1 [Example 63, trans-8-Chloro-1-[4-(4,6-dimethyl-pyrimidin-2-yl)-cyclohexyl]-4H,6H-2,3,5,10b-tetraaza-benzo[e]azulene-5-carboxylic acid tert-butyl ester] | 0.398 nM |
| Clc1ccc2c(c1)CNCc1nnc([C@H]3CC[C@H](c4cccnc4)CC3)n1-2 [Example 49, trans-8-Chloro-1-(4-pyridin-3-yl-cyclohexyl)-5,6-dihydro-4H-2,3,5,10b-tetraaza-benzo[e]azulene] | 33.9 nM |
| CC(C)(C)OC(=O)N1Cc2cc(Cl)ccc2-n2c(nnc2[C@H]2CC[C@H](c3ncccc3Cl)CC2)C1 [Example 82, trans-8-Chloro-1-[4-(3-chloro-pyridin-2-yl)-cyclohexyl]-4H,6H-2,3,5,10b-tetraaza-benzo[e]azulene-5-carboxylic acid tert-butyl ester] | 0.501 nM |
| CC(C)(C)OC(=O)N1Cc2cc(Cl)ccc2-n2c(nnc2[C@H]2CC[C@H](c3ncccn3)CC2)C1 [Example 57, trans-8-Chloro-1-(4-pyrimidin-2-yl-cyclohexyl)-4H,6H-2,3,5,10b-tetraaza-benzo[e]azulene-5-carboxylic acid tert-butyl ester] | 1.58 nM |
| Fc1ccc([C@H]2CC[C@H](c3nnc4n3-c3ccc(Cl)cc3CNC4)CC2)nc1 [Example 23, trans-8-Chloro-1-[4-(5-fluoro-pyridin-2-yl)-cyclohexyl]-5,6-dihydro-4H-2,3,5,10b-tetraaza-benzo[e]azulene dihydrochloride] | 7.24 nM |
| CN1Cc2cc(Cl)ccc2-n2c(nnc2[C@H]2CC[C@H](c3cccnn3)CC2)C1 [Example 81, trans-8-Chloro-5-methyl-1-(4-pyridazin-3-yl-cyclohexyl)-5,6-dihydro-4H-2,3,5,10b-tetraaza-benzo[e]azulene] | 4.68 nM |
| Fc1cnc([C@H]2CC[C@H](c3nnc4n3-c3ccc(Cl)cc3CNC4)CC2)c(F)c1 [Example 86, trans-8-Chloro-1-[4-(3,5-difluoro-pyridin-2-yl)-cyclohexyl]-5,6-dihydro-4H-2,3,5,10b-tetraaza-benzo[e]azulene] | 9.33 nM |
| CNCCN1Cc2cc(Cl)ccc2-n2c(nnc2[C@H]2CC[C@H](c3ncccc3F)CC2)C1 [Example 36, trans-(2-{8-Chloro-1-[4-(3-fluoro-pyridin-2-yl)-cyclohexyl]-4H,6H-2,3,5,10b-tetraaza-benzo[e]azulen-5-yl}-ethyl)-methyl-amine] | 28.2 nM |
| Cc1cncc([C@H]2CC[C@H](c3nnc4n3-c3ccc(Cl)cc3CN(C)C4)CC2)n1 [Example 74, trans-8-Chloro-5-methyl-1-[4-(6-methyl-pyrazin-2-yl)-cyclohexyl]-5,6-dihydro-4H-2,3,5,10b-tetraaza-benzo[e]azulene] | 11.2 nM |
| Cc1nccc([C@H]2CC[C@H](c3nnc4n3-c3ccc(Cl)cc3CNC4)CC2)n1 [Example 67, trans-8-Chloro-1-[4-(2-methyl-pyrimidin-4-yl)-cyclohexyl]-5,6-dihydro-4H-2,3,5,10b-tetraaza-benzo[e]azulene] | 1100 nM |
| CS(=O)(=O)N1Cc2cc(Cl)ccc2-n2c(nnc2[C@H]2CC[C@H](c3ncccc3F)CC2)C1 [Example 40, trans-8-Chloro-1-[4-(3-fluoro-pyridin-2-yl)-cyclohexyl]-5-methanesulfonyl-5,6-dihydro-4H-2,3,5,10b-tetraaza-benzo[e]azulene] | 0.178 nM |
| CCc1cccc([C@H]2CC[C@H](c3nnc4n3-c3ccc(Cl)cc3CNC4)CC2)n1 [Example 8, trans-8-Chloro-1-[4-(6-ethyl-pyridin-2-yl)-cyclohexyl]-5,6-dihydro-4H-2,3,5,10b-tetraaza-benzo[e]azulene] | 44.7 nM |
| CC(C)c1cccc([C@H]2CC[C@H](c3nnc4n3-c3ccc(Cl)cc3CNC4)CC2)n1 [Example 11, trans-8-Chloro-1-[4-(6-isopropyl-pyridin-2-yl)-cyclohexyl]-5,6-dihydro-4H-2,3,5,10b-tetraaza-benzo[e]azulene hydrochloride] | 70.8 nM |
| Clc1ccc2c(c1)CNCc1nnc([C@H]3CC[C@@H](c4ncccn4)CC3)n1-2 [Example 61, cis-8-Chloro-1-(4-pyrimidin-2-yl-cyclohexyl)-5,6-dihydro-4H-2,3,5,10b-tetraaza-benzo[e]azulene] | 427 nM |
| Cc1cc(C)nc([C@H]2CC[C@H](c3nnc4n3-c3ccc(Cl)cc3CNC4)CC2)n1 [Example 64, trans-8-Chloro-1-[4-(4,6-dimethyl-pyrimidin-2-yl)-cyclohexyl]-5,6-dihydro-4H-2,3,5,10b-tetraaza-benzo[e]azulene hydrochloride] | 18.6 nM |
| CC(C)(C)OC(=O)N1Cc2cc(Cl)ccc2-n2c(nnc2[C@H]2CC[C@H](c3cc(Cl)ccn3)CC2)C1 [Example 25, trans-8-Chloro-1-[4-(4-chloro-pyridin-2-yl)-cyclohexyl]-4H,6H-2,3,5,10b-tetraaza-benzo[e]azulene-5-carboxylic acid tert-butyl ester] | 0.427 nM |
| Cc1nccnc1[C@H]1CC[C@H](c2nnc3n2-c2ccc(Cl)cc2CNC3)CC1 [Example 76, trans-8-Chloro-1-[4-(3-methyl-pyrazin-2-yl)-cyclohexyl]-5,6-dihydro-4H-2,3,5,10b-tetraaza-benzo[e]azulene] | 44.7 nM |
| Cc1cccc([C@H]2CC[C@H](c3nnc4n3-c3ccc(Cl)cc3CNC4)CC2)n1 [Example 5, trans-8-Chloro-1-[4-(6-methyl-pyridin-2-yl)-cyclohexyl]-5,6-dihydro-4H-2,3,5,10b-tetraaza-benzo[e]azulene] | 13.8 nM |
| CC(C)(C)OC(=O)N1Cc2cc(Cl)ccc2-n2c(nnc2[C@H]2CC[C@@H](c3ncccn3)CC2)C1 [Example 58, cis-8-Chloro-1-(4-pyrimidin-2-yl-cyclohexyl)-4H,6H-2,3,5,10b-tetraaza-benzo[e]azulene-5-carboxylic acid tert-butyl ester] | 20.4 nM |
| Fc1ccc2c(c1)CNCc1nnc([C@H]3CC[C@H](c4ncccc4F)CC3)n1-2 [Example 43, trans-8-Fluoro-[4-(3-fluoro-pyridin-2-yl)-cyclohexyl]-5,6-dihydro-4H-2,3,5,10b-tetraaza-benzo[e]azulene] | 24.5 nM |
| CC(C)N1Cc2cc(Cl)ccc2-n2c(nnc2[C@H]2CC[C@H](c3ncccc3F)CC2)C1 [Example 32, trans-8-Chloro-5-isopropyl-[4-(3-fluoro-pyridin-2-yl)-cyclohexyl]-5,6-dihydro-4H-2,3,5,10b-tetraaza-benzo[e]azulene] | 0.562 nM |
| Clc1ccc2c(c1)CNCc1nnc([C@H]3CC[C@H](c4ccccn4)CC3)n1-2 [Example 2, trans-8-Chloro-1-(4-pyridin-2-yl-cyclohexyl)-5,6-dihydro-4H-2,3,5,10b-tetraaza-benzo[e]azulene dihydrochloride] | 10 nM |
| O=C(CO)N1Cc2cc(Cl)ccc2-n2c(nnc2[C@H]2CC[C@H](c3ncccc3F)CC2)C1 [Example 38, trans-1-{8-Chloro-1-[4-(3-fluoro-pyridin-2-yl)-cyclohexyl]-4H,6H-2,3,5,10b-tetraaza-benzo[e]azulen-5-yl}-2-hydroxy-ethanone] | 2.29 nM |
| CN1Cc2cc(Cl)ccc2-n2c(nnc2[C@H]2CC[C@H](c3cccnc3)CC2)C1 [Example 50, trans-8-Chloro-5-methyl-1-(4-pyridin-3-yl-cyclohexyl)-5,6-dihydro-4H-2,3,5,10b-tetraaza-benzo[e]azulene] | 4.57 nM |
| CC(C)(C)OC(=O)N1Cc2cc(Cl)ccc2-n2c(nnc2[C@H]2CC[C@H](c3cccc(Cl)n3)CC2)C1 [Example 16, trans-8-Chloro-1-[4-(6-chloro-pyridin-2-yl)-cyclohexyl]-4H,6H-2,3,5,10b-tetraaza-benzoazulene-5-carboxylic acid tert-butyl ester] | 0.302 nM |
| CC(=O)N1Cc2cc(Cl)ccc2-n2c(nnc2[C@H]2CC[C@H](c3ncccc3F)CC2)C1 [Example 37, trans-1-{8-Chloro-1-[4-(3-fluoro-pyridin-2-yl)-cyclohexyl]-4H,6H-2,3,5,10b-tetraaza-benzo[e]azulen-5-yl}-ethanone] | 1.62 nM |
| Fc1cccnc1[C@H]1CC[C@@H](c2nnc3n2-c2ccc(Cl)cc2CNC3)CC1 [Example 46, cis-8-Chloro-1-[4-(3-fluoro-pyridin-2-yl)-cyclohexyl]-5,6-dihydro-4H-2,3,5,10b-tetraaza-benzo[e]azulene] | 200 nM |
| CC(C)(C)OC(=O)N1Cc2cc(Cl)ccc2-n2c(nnc2[C@H]2CC[C@H](c3cccnc3)CC2)C1 [Example 48, trans-8-Chloro-1-(4-pyridin-3-yl-cyclohexyl)-4H,6H-2,3,5,10b-tetraaza-benzo[e]azulene-5-carboxylic acid tert-butyl ester] | 0.603 nM |
